Measurements: patent US8389573B2, “Glycyrrhetinic acid derivatives” (Wellington Laboratories Inc., priority 2006, dated 2013)

What was measured:
[1] = target: T1, PPARγ-coactivator interactions (Homo sapiens, UniProt P37231); conditions: SW480 cells, reference (22); cited from earlier work
T1 construct: expressed in transfected cells; host or cells: SW480 cells, transient transfection (LipofectAMINE)
T1 sequence (P37231 238-503 limits assumed): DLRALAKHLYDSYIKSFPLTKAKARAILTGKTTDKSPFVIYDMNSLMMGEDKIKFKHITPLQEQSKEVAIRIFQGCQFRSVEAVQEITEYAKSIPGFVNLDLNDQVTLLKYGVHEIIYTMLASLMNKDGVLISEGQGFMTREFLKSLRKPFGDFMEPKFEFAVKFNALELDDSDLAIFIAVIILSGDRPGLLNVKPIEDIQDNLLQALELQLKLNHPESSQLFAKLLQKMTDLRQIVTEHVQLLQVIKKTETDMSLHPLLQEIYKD

PPARγ = conditions: SW480 cells, previous studies (22); cited from earlier work
SW480 cells = assay: Western blot analysis in SW480 cells; assay type: cell-based, human; conditions: SW480, treatment for 3 days
Procedure: SW-480 and HT-29 (3×10^5) cells were seeded in six-well plates in DMEM/Ham's F-12 media containing 2.5% charcoal-stripped FBS for 24 h and then treated with either the vehicle (DMSO) or the indicated compounds. Whole-cell lysates were obtained using high-salt buffer [50 mM HEPES, 500 mM NaCl, 1.5 mM MgCl2, 1 mM EGTA, 10% glycerol, and 1% Triton X-100, pH 7.5, and 5 μl/ml Protease Inhibitor Cocktail (Sigma-Aldrich)]. Protein samples were incubated at 100° C. for 2 min, separated on 10% SDS-PAGE at 120 V for 3 to 4 h in 1× running buffer (25 mM Tris-base, 192 mM glycine, and 0.1% SDS, pH 8.3), and transferred to polyvinylidene difluoride membrane (PVDF; Bio-Rad, Hercules, Calif.) at […] for 16 h at 4° C. in 1× transfer buffer (48 mM Tris-HCl, 39 mM glycine, and 0.025% SDS). The PVDF membrane was blocked in 5% TBST-Blotto (10 mM Tris-HCl, 150 mM NaCl, pH 8.0, 0.05% Triton X-100, and 5% nonfat dry milk) with gentle shaking for 30 min and was incubated in fresh 5% TBST-Blotto with 1:1000 (for caveolin-1, p27, p21, cyclin D1, Grp78), 1:500 (for KLF4, NAG-1), 1:250 (for PARP), and 1:5000 (for β-actin) primary antibody overnight with gentle shaking at 4° C. After washing with TBST for 10 min, the PVDF membrane was incubated with secondary antibody (1:5000) in 5% TBST-Blotto for 90 min. The membrane was washed with TBST for 10 min, incubated with 10 ml of chemiluminescence substrate (PerkinElmer) for 1.0 min, and exposed to Kodak X-OMAT AR autoradiography film (Eastman Kodak, Rochester, N.Y.).

[2] = system: Sp1, Sp3 and Sp4 in liver; assay: Sp protein expression in non-target tissue (liver) of treated mice; assay type: in vivo; conditions: preliminary results
Source text: (i) Animal treatment: Male athymic nude mice are obtained from commercial sources and their use approved by the Institutional Animal Care and Use Committee. Ten animals are used for each treatment group and based on consultation with biostatisticians, this number is sufficient for determining statistical significance between treatment groups (41, 42). At least one AR-positive (LNCaP/22Rv1) and AR-negative (PC3/DU145) prostate cancer cell line is used in the xenograft study. Cells are harvested by exposure to trypsin and resuspended in serum-free Hanks' balanced salt solution (HBSS). […] In addition, Western blot analysis of Sp proteins, proapoptotic and antiangiogenic responses is determined on whole cell lysates from compound- and corn oil (vehicle)-treated tumors. Where possible (depending on the amount of protein extracted), the effects of the compound versus corn oil on expression of these proteins is quantitated and statistically analyzed. In addition, the effects of the compound on Sp protein expression in non-target tissue (e.g. liver and kidney) is determined. […] Immunostaining for Sp1, Sp3 and Sp4 and for angiogenic (VEGF, VEGFR1 and VEGFR2) and apoptotic (cleaved PARP, activated caspase 3, survivin and TUNEL) proteins/responses are determined as described above.

LNCaP cells = assay: Western blot analysis and DNA fragmentation assay in LNCaP cells; assay type: cell-based, human; conditions: 2.5 μM β-CDODA-Me, 24 hr
Procedure: Cell Proliferation and DNA Fragmentation Assays: LNCaP prostate cancer cells (2×10^4 per well) were added to 12-well plates and allowed to attach for 24 hr. The medium was then changed to DMEM/Ham's F-12 media containing 2.5% charcoal-stripped FBS, and either vehicle (DMSO) or the indicated C-DIMs were added. Fresh medium and indicated compounds were added every 48 hr, and cells were then trypsinized and counted after 2, 4, and 6 days using a Coulter Z1 cell counter (Beckman Coulter, Fullerton, Calif.). Each experiment was done in triplicate, and results are expressed as means±S.E. for each set of three experiments. The DNA fragmentation assay was performed using a BioVision Apoptotic DNA ladder extraction kit (BioVision, Mountain View, Calif.) according to the manufacturer's protocol.
Western Blot Analysis: Cells were seeded in DMEM:Ham's F-12 media containing 2.5% charcoal-stripped FBS for 24 hr and then treated with either the vehicle (DMSO) or the indicated compounds. Cells were collected by scraping in 150 μl high salt lysis buffer (50 mM HEPES, 0.5 M NaCl, 1.5 mM MgCl2, 1 mM EGTA, 10% (v/v) glycerol, 1% (v/v) Triton-X-100 and 5 μL/ml of Protease Inhibitor Cocktail (Sigma). The lysates were incubated on ice for 1 hr with intermittent vortexing followed by centrifugation at 20,000 g for 10 min at 4° C. Before electrophoresis, samples were boiled for 3 min at 100° C.; the amount of protein was determined and 60 μg protein applied per lane. Samples were subjected to SDS-PAGE on 10% gel at 120 V for 3 to 4 hr. Proteins were transferred on to polyvinylidene difluoride membrane (PVDF; Bio-Rad, Hercules, Calif.) at 0.9 amp for 90 min at 4° C. in 1× transfer buffer (48 mM Tris-HCl, 39 mM glycine, and 0.025% SDS). The membranes were blocked for 30 min with 5% TBST-Blotto (10 mM Tris-HCl, 150 mM NaCl (pH 8.0), 0.05% Triton X-100 and 5% non-fat dry milk) and incubated in fresh 5% TBST-Blotto with primary antibody overnight with gentle shaking at 4° C. After washing with TBST for 10 min, the PVDF membrane was incubated with secondary antibody (1:5000) in 5% TBST-Blotto for 2-3 hr. The membrane was washed with TBST for 10 min and incubated with 10 ml of chemiluminescence substrate (PerkinElmer Life Sciences) for 1.0 min and exposed to ImageTeK-H medical imaging film (Eastman American X-ray Supply, Inc.).

p21 promoter = p21 promoter construct luciferase assay in LNCaP cells; assay type: cell-based; conditions: 10 μM PD98059

COC(=O)[C@]12CCC(C)(C)C[C@H]1[C@H]1C(=O)C=C3[C@@]4(C)C=C(C#N)C(=O)C(C)(C)[C@@H]4CC[C@@]3(C)[C@]1(C)CC2 [CDDO-Me]
interactions between VP-PPARγ and GAL4-coactivator/corepressor chimeras (SRC1, SRC2, SRC3, PGC1, TRAP220, CARM1, SMRT) [1]: induced interactions
luciferase activity with GAL4-PPARγ/GAL4-Luc (PPARγ): induced luciferase activity
caveolin-1 protein expression (SW480 cells): induce caveolin-1 protein

COC(=O)[C@@]1(C)CCC2(C)CC[C@]3(C)C(=CC(=O)[C@@H]4C5(C)C=C(I)C(=O)C(C)(C)[C@@H]5CCC43C)C2C1 (stereo partly drawn) [β-IDODA-Me, Methyl 2-iodo-3,11-dioxo-18β-oleana-1,12-diene-30-oate]
Sp1, Sp3 and Sp4 expression in liver [2]: unaffected

COc1cccc(-c2cc(=O)c3ccccc3o2)c1N [PD98059, reference compound]
effect of kinase inhibitor on induction of ATF-3 by β-CDODA-Me (LNCaP cells): blocked induction
effect of kinase inhibitor on induction of NAG-1 by β-CDODA-Me (LNCaP cells): inhibited induction
effect on β-CDODA-Me downregulation of cyclin D1 and induction of p21 (LNCaP cells): partially blocked
effect on β-CDODA-Me-induced p21-luc(101) luciferase activity (p21 promoter): inhibited this response
